The values that follow are results of earlier work, collected in patent US20110280855A1, “VITAMIN C COMPOSITIONS” (priority 2006, published 2011).

Series [1] has as its system murine neuroblastoma as well as melanoma cell lines. The conditions noted are these: in vitro; dependent on the source of tumor cells.
In series [2] the test system is Normal lung tissue of mice. Particulars: normal lung tissue of mice upon treatment.

`O=C(O)CCCCC1CCSS1` (stereo not drawn) [alpha-lipoic acid]: the “increase of GSH content compared to untreated controls” value in series [1] is recorded as 30-70%. In series [2], the increase in glutathione entry was “about 50%”.
